Experimental findings from patent US8877707B2, “Inhibitors of HCV NS5A” (Presidio Pharmaceuticals, Inc., priority 2010, dated 2014) are described below.

Structures are written as SMILES. pEC50: −log10 of the molar value. A value given as a limit tells only on which side of the number the result lay.

In the assay the test system is HCV genotype 1b replicon in Huh 7 cells. Briefly: HCV replicon assay (1b_Huh-Luc/Neo-ET cell line, luciferase readout). In kind it is cell-based. Conditions: Hepatitis C virus; Table 1; genotype 1b replicon, Huh 7 cells, 72 h, luciferase; read-out: Inhibition of HCV genotype 1b. The procedure:
Biological activity of the compounds of the invention was determined using an HCV replicon assay. The 1b_Huh-Luc/Neo-ET cell line persistently expressing a bicistronic genotype 1b replicon in Huh 7 cells was obtained from ReBLikon GMBH. This cell line was used to test compound inhibition using luciferase enzyme activity readout as a measurement of compound inhibition of replicon levels.
On Day 1 (the day after plating), each compound is added in triplicate to the cells. Plates incubated for 72 h prior to running the luciferase assay. Enzyme activity was measured using a Bright-Glo Kit (cat. number E2620) manufactured by Promega Corporation. The following equation was used to generate a percent control value for each compound. % Control=(Average Compound Value/Average Control)*100
The EC50 value was determined using GraphPad Prism and the following equation: Y=Bottom+(Top−Bottom)/(1+10^((Log IC50−X)*HillSlope))
EC50 values of compounds are repeated several times in the replicon assay.

For `COC(=O)N[C@H](C(=O)N1CCC[C@H]1c1ncc(-c2ccc(-c3ccc4cc(-c5c[nH]c([C@@H]6CCCN6C(=O)[C@H](NC(=O)NC6CC6)c6ccccc6)n5)ccc4c3)cc2)[nH]1)C(C)C` [compound 29], the pEC50 is above 9.00. For the compound `COC(=O)N[C@H](C(=O)N1CCC[C@H]1c1nc(-c2ccc3nc(-c4ccc(-c5cnc([C@@H]6CCCN6C(=O)[C@H](NC(=O)OC(C)(C)C)c6ccccc6)[nH]5)cc4)ccc3c2)c[nH]1)C(C)C` [compound 30], the pEC50 was above 9.00. Consider `CNC(=O)N[C@@H](C(=O)N1CCC[C@H]1c1ncc(-c2ccc(-c3ccc4cc(-c5c[nH]c([C@@H]6CCCN6C(=O)[C@@H](NC(=O)OC)C(C)C)n5)ccc4n3)cc2)[nH]1)c1ccccc1` [compound 31], for which the pEC50 is above 9.00. Then `COC(=O)N[C@H](C(=O)N1CCC[C@H]1c1nc(-c2cnc3cc(-c4ccc(-c5cnc([C@@H]6CCCN6C(=O)[C@H](NC(=O)OC)c6ccccc6)[nH]5)cc4)ccc3c2)c[nH]1)C(C)C` [compound 32], with above 9.00.

On to `CCNC(=O)N[C@@H](C(=O)N1CCC[C@H]1c1ncc(-c2ccc(-c3ccc4cc(-c5c[nH]c([C@@H]6CCCN6C(=O)[C@@H](NC(=O)OC)C(C)C)n5)ccc4n3)cc2)[nH]1)c1ccccc1` [compound 33], for which the pEC50 is above 9.00. The figure for `COC(=O)N[C@H](C(=O)N1CCC[C@H]1c1nc(-c2ccc3nc(-c4ccc(-c5cnc([C@@H]6CCCN6C(=O)[C@H](NC(=O)NC6CC6)c6ccccc6)[nH]5)cc4)ccc3c2)c[nH]1)C(C)C` [compound 34] is above 9.00; for `COC(=O)N[C@H](C(=O)N1CCC[C@H]1c1ncc(-c2ccc(-c3ccc4cc(-c5c[nH]c([C@@H]6CCCN6C(=O)[C@H](NC(=O)OC(C)(C)C)c6ccccc6)n5)ccc4n3)cc2)[nH]1)C(C)C` [compound 35] it is above 9.00; for `CNC(=O)N[C@@H](C(=O)N1CCC[C@H]1c1nc(-c2ccc3nc(-c4ccc(-c5cnc([C@@H]6CCCN6C(=O)[C@@H](NC(=O)OC)C(C)C)[nH]5)cc4)ccc3c2)c[nH]1)c1ccccc1` [compound 36] it is above 9.00. Then `CCNC(=O)N[C@@H](C(=O)N1CCC[C@H]1c1nc(-c2ccc3nc(-c4ccc(-c5cnc([C@@H]6CCCN6C(=O)[C@@H](NC(=O)OC)C(C)C)[nH]5)cc4)ccc3c2)c[nH]1)c1ccccc1` [compound 37], with above 9.00; and `COC(=O)N[C@H](C(=O)N1CCC[C@H]1c1ncc(-c2ccc(-c3ccc4cc(-c5c[nH]c([C@@H]6CCCN6C(=O)[C@H](NC(=O)NC6CC6)c6ccccc6)n5)ccc4n3)cc2)[nH]1)C(C)C` [compound 38], with above 9.00; and `COC(=O)N[C@H](C(=O)N1CCC[C@H]1c1ncc(-c2ccc(-c3ccc4cc(-c5c[nH]c([C@@H]6CCCN6C(=O)[C@@H](NC(=O)OC)C6CCOCC6)n5)ccc4n3)cc2)[nH]1)C(C)C` [compound 39], with above 9.00. Consider `COC(=O)N[C@H](C(=O)N1CCC[C@H]1c1ncc(-c2ccc(-c3ccc4cc(-c5c[nH]c([C@@H]6CCCN6C(=O)[C@@H](NC(=O)OC)[C@@H](C)OC)n5)ccc4n3)cc2)[nH]1)C(C)C` [compound 40], for which the pEC50 is above 9.00.

For the compound `COC(=O)N[C@@H](C)C(=O)N1CCC[C@H]1c1nc(-c2ccc3nc(-c4ccc(-c5cnc([C@@H]6CCCN6C(=O)[C@@H](NC(=O)OC)C(C)C)[nH]5)cc4)ccc3c2)c[nH]1` [compound 41], the pEC50 is above 9.00. Then `COC(=O)N[C@H](C(=O)N1CCC[C@H]1c1nc(-c2ccc3nc(-c4ccc(-c5cnc([C@@H]6CCCN6C(=O)[C@@H](NC(=O)OC)C6CCOCC6)[nH]5)cc4)ccc3c2)c[nH]1)C(C)C` [compound 42], with above 9.00.

As to `COC(=O)N[C@H](C(=O)N1CCC[C@H]1c1nc(-c2ccc3nc(-c4ccc(-c5cnc([C@@H]6CCCN6C(=O)[C@@H](NC(=O)OC)[C@@H](C)OC)[nH]5)cc4)ccc3c2)c[nH]1)C(C)C` [compound 43], the pEC50 is above 9.00. Take `COC(=O)N[C@@H](C)C(=O)N1CCC[C@H]1c1ncc(-c2ccc(-c3ccc4cc(-c5c[nH]c([C@@H]6CCCN6C(=O)[C@@H](NC(=O)OC)C(C)C)n5)ccc4n3)cc2)[nH]1` [compound 44]: the pEC50 was above 9.00.
